The source of these data is US4281121A, “1,3,4-Thiadiazole-2-carboxylic acid derivatives, process for making the same and fungicidal and nematocidal compositions containing same” (Schering Aktiengesellschaft, priority 1978, dated 1981).

The subject of one assay is Botrytis cinerea. The assay can be described thus: Prophylactic leaf treatment of tomato plants against Botrytis cinerea. Format: in vivo. As to conditions: concentration of 0.025 of the active agent (unit not given).
Another assay relates to Pythium ultimum. The assay can be described thus: Threshold concentration test for use of the compounds against Pythium ultimum (infested soil, garden peas). Format: in vivo. The arrangement: key to root evaluation (1-4): 4: white roots without fungous necrosis; 3: white roots, minor fungous necrosis; 2: brown roots, already more pronounced fungous necrosis; 1: heavy fungous necrosis, roots rotted. The conditions noted are these: for root evaluation (1-4): 3 weeks; for number of sound peas: 20 grains per dish, 3 weeks at 20-24° C. The gist of the method:
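Pulverulent agents at 20% concentration mixed evenly into soil heavily infested with Pythium ultimum, then garden peas ('Wunder von Kelvedon', 20 per dish) sown at once. After three weeks at 20–24 °C in a hothouse, sound peas counted and roots scored on a 1–4 scale.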

In the next assay the test system is Tilletia caries. The assay can be described thus: Treatment of oat seeds infested with Tilletia caries (spore germination). The format is in vivo.
The next assay concerns Plasmopara viticola. The assay can be described thus: Prophylactic leaf treatment of grapevines in the hothouse against Plasmopara viticola. Format: in vivo. The method in brief: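 Grapevines (5–8 leaves) sprayed to runoff with compound as 20% spray powder, then after drying inoculated on leaf undersides with sporangial suspension (~20,000/ml). Incubated at 22–24 °C, saturated humidity, 3–4 days normal humidity (30–70%), then one day saturated; activity from mean % infested leaf area per treatment.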

For the next assay, the system named is Fusarium avenaceum. The assay can be described thus: Threshold concentration test in case of Fusarium avenaceum (infested soil, garden peas). The format is in vivo. The conditions noted are these: for number of sound peas: 20 grains per dish, 18 days at 20-24° C.; for root evaluation (1-4): 18 days. The gist of the method: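 Soil heavily infested with Fusarium avenaceum was mixed uniformly with a 20% powder formulation of active agent, then sown immediately with 20 garden pea seeds ('Wunder von Kelvedon') per dish. After 18 days in a greenhouse at 20° to 24° C., sound plants were counted and roots scored on a 1–4 scale.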

The subject of assay [1] is Helminthosporium gramineum. The assay can be described thus: Seed treatment in open field tests for infestation by Helminthosporium gramineum (barley). Format: in vivo. As to conditions: summer barley; 50 g active agent/100 kg barley; about 3 months. The procedure:
Seed treatment in open field tests for infestation by Helminthosporium gramineum
The active agents were used in the form of pulverulent compositions. After about 8 months in case of winter barley and after about 3 months in case of summer barley the infested plants were counted and the activity was calculated by the formula [formula]

The next assay relates to Piricularia oryzae. Format: in vivo. The conditions noted are these: concentration of active agent 0.1 (percentages); 5 days.
For another assay, the system named is Venturia inaequalis. Briefly: Prophylactic leaf treatment of apples in open field test against Venturia inaequalis. As to conditions: 3 weeks. The format is in vivo.
Another assay has as its system Helminthosporium gram. The conditions noted are these: about 5 weeks.
The mark [2] stands for this setting: concentration of active agent 0.025 (unit not given).
The mark [3] stands for this setting: concentration of active agent 0.005 (in gram).
Setting [4] is: concentration of active agent 0.025 (in gram).
Where [5] appears, read: concentration of active agent 0.001 (unit not given).
Setting [6] is: concentration of active agent 0.005 (unit not given).

Like-named read-outs stand apart in the source and are kept apart here.

For the compound `CCCNC(=O)c1nnc(S(=O)(=O)CCC)s1` [5-propylsulfonyl-1,3,4-thiadiazole-2-carboxylic acid-propylamide], the “% activity” value came to 80% in the assay with Botrytis cinerea; 99.5% in the assay on Tilletia caries (10 g active agent per 100 kg); 99.7% with Tilletia caries (20 g active agent per 100 kg); 100% with Tilletia caries (50 g active agent per 100 kg); 93% with Plasmopara viticola (setting [2]). In addition, the “root evaluation (1-4)” value in the assay with Pythium ultimum (20 mg/l soil) amounted to 1; with Pythium ultimum (40 mg/l soil), 4; in the assay with Pythium ultimum (80 mg/l soil), 4. For the same compound, the entries for the “number of sound peas” value in the assay on Pythium ultimum (20 mg/l soil), with Pythium ultimum (40 mg/l soil) and in the assay with Pythium ultimum (80 mg/l soil) were 10, 16 and 16, respectively.

`CCCCCCS(=O)(=O)c1nnc(C#N)s1` [5-hexylsulfonyl-1,3,4-thiadiazole-2-carbonitrile]: the “number of sound peas” value in the assay with Fusarium avenaceum (25 mg/l soil), in the assay with Fusarium avenaceum (50 mg/l soil) and with Fusarium avenaceum (100 mg/l soil) was 19 each time. Moreover, the “root evaluation (1-4)” value in the assay on Fusarium avenaceum (25 mg/l soil), with Fusarium avenaceum (50 mg/l soil) and in the assay with Fusarium avenaceum (100 mg/l soil) was 4 in each case. Moreover, the “% activity” value worked out at 86% in the assay on Botrytis cinerea, 90% in the assay with Tilletia caries (50 g active agent per 100 kg) and 90% with Plasmopara viticola (setting [2]).

For the compound `CCCCNC(=O)c1nnc(S(C)(=O)=O)s1` [5-methylsulfonyl-1,3,4-thiadiazole-2-carboxylic acid-butylamide], the “% activity” value is recorded as 99.3% in assay [1]; 76% with Botrytis cinerea; 90% with Piricularia oryzae; 94% in the assay on Venturia inaequalis (setting [3]); 99% with Venturia inaequalis (setting [4]); 99.2% in the assay with Tilletia caries (10 g active agent per 100 kg). Further, the “% activity” value in the assay with Tilletia caries (20 g active agent per 100 kg) is 100%; with Tilletia caries (50 g active agent per 100 kg), 100%; in the assay with Plasmopara viticola (setting [5]), 83%; in the assay on Plasmopara viticola (setting [6]) it was 99.1%; with Helminthosporium gram (50 g active agent per 100 kg), 90%. Further, the “root evaluation (1-4)” value with Pythium ultimum (20 mg/l soil) is 2; with Pythium ultimum (40 mg/l soil) it was 4; with Pythium ultimum (80 mg/l soil) it was 4. Moreover, the figures for the “number of sound peas” value in the assay on Pythium ultimum (20 mg/l soil), with Pythium ultimum (40 mg/l soil) and with Pythium ultimum (80 mg/l soil) were 14, 15 and 16, respectively.

Turning to `CCCNC(=O)c1nnc(S(C)(=O)=O)s1` [5-methylsulfonyl-1,3,4-thiadiazole-2-carboxylic acid-propylamide], the “% activity” value came out at 100% in [1]; 76% in the assay on Botrytis cinerea; 90% in the assay on Piricularia oryzae; 98% in the assay on Venturia inaequalis (setting [3]); 99.7% with Venturia inaequalis (setting [4]); 99.5% in the assay with Tilletia caries (10 g active agent per 100 kg). Besides, the “% activity” value came out at 100% with Tilletia caries (20 g active agent per 100 kg); 100% with Tilletia caries (50 g active agent per 100 kg); 82% in the assay with Plasmopara viticola (setting [6]); 95% in the assay with Plasmopara viticola (setting [2]); 93% in the assay with Helminthosporium gram (50 g active agent per 100 kg). The “root evaluation (1-4)” value in the assay with Pythium ultimum (20 mg/l soil), with Pythium ultimum (40 mg/l soil) and in the assay on Pythium ultimum (80 mg/l soil) was 4 in each case. The “number of sound peas” value with Pythium ultimum (20 mg/l soil), in the assay on Pythium ultimum (40 mg/l soil) and with Pythium ultimum (80 mg/l soil) was 15 each time.

In the case of `CCC[S+]([O-])c1nnc(C(=O)NC(C)CC)s1` (stereo not drawn) [5-propylsulfinyl-1,3,4-thiadiazole-2-carboxylic acid-sec.-butylamide], the “number of sound peas” value amounted to 9 in the assay on Fusarium avenaceum (25 mg/l soil), 17 with Fusarium avenaceum (50 mg/l soil) and 17 in the assay on Fusarium avenaceum (100 mg/l soil). In addition, the “root evaluation (1-4)” value with Fusarium avenaceum (25 mg/l soil) was found to be 1; with Fusarium avenaceum (50 mg/l soil) it was 4; in the assay with Fusarium avenaceum (100 mg/l soil) it was 4. Moreover, the “% activity” value is 80% in the assay with Botrytis cinerea; 100% in the assay with Tilletia caries (20 g active agent per 100 kg); 100% in the assay on Tilletia caries (50 g active agent per 100 kg); 86% in the assay with Plasmopara viticola (setting [5]); 92% in the assay on Plasmopara viticola (setting [6]); 92% in the assay on Plasmopara viticola (setting [2]). Besides, the “% activity” value in the assay on Helminthosporium gram (50 g active agent per 100 kg) was 94%.

In the case of `CCNC(=O)c1nnc([S+](C)[O-])s1` (stereo not drawn) [5-methylsulfinyl-1,3,4-thiadiazole-2-carboxylic acid-ethylamide], the “% activity” value in the assay on Botrytis cinerea came out at 75%; in the assay with Piricularia oryzae, 90%; with Tilletia caries (20 g active agent per 100 kg) it was 100%; with Tilletia caries (50 g active agent per 100 kg), 100%; in the assay on Plasmopara viticola (setting [2]), 96%; with Helminthosporium gram (10 g active agent per 100 kg) it was 98%. In addition, the “% activity” value in the assay on Helminthosporium gram (20 g active agent per 100 kg) is on record as 99%; in the assay with Helminthosporium gram (50 g active agent per 100 kg), 100%. In addition, the “root evaluation (1-4)” value with Pythium ultimum (20 mg/l soil) was determined as 2; with Pythium ultimum (40 mg/l soil), 4; in the assay with Pythium ultimum (80 mg/l soil), 4. In addition, the “number of sound peas” value in the assay with Pythium ultimum (20 mg/l soil) was 18; in the assay on Pythium ultimum (40 mg/l soil) it was 18; in the assay on Pythium ultimum (80 mg/l soil), 19.

Consider `CCCCCCNC(=O)c1nnc(S(=O)(=O)CCC)s1` [5-propylsulfonyl-1,3,4-thiadiazole-2-carboxylic acid-hexylamide], for which the “% activity” value in the assay on Botrytis cinerea is reported as 78%; in the assay on Piricularia oryzae, 95%; in the assay on Tilletia caries (20 g active agent per 100 kg), 100%; in the assay with Tilletia caries (50 g active agent per 100 kg), 100%; in the assay with Plasmopara viticola (setting [5]) it was 88%; in the assay on Plasmopara viticola (setting [6]), 98%. The “% activity” value in the assay on Plasmopara viticola (setting [2]) is 100%.

For the compound `CCCS(=O)(=O)c1nnc(C(N)=O)s1` [5-propylsulfonyl-1,3,4-thiadiazole-2-carboxamide], the “% activity” value worked out at 94% with Botrytis cinerea; 100% in the assay with Tilletia caries (10 g active agent per 100 kg); 100% with Tilletia caries (20 g active agent per 100 kg); 100% in the assay with Tilletia caries (50 g active agent per 100 kg); 89% with Plasmopara viticola (setting [6]); 95% with Plasmopara viticola (setting [2]). The “root evaluation (1-4)” value in the assay with Pythium ultimum (20 mg/l soil) came out at 1; in the assay with Pythium ultimum (40 mg/l soil) it was 4; with Pythium ultimum (80 mg/l soil), 4. Besides, the “number of sound peas” value is given as 12 in the assay with Pythium ultimum (20 mg/l soil), 19 in the assay on Pythium ultimum (40 mg/l soil) and 17 in the assay on Pythium ultimum (80 mg/l soil).

For the compound `CCS(=O)(=O)c1nnc(C(=O)N2CCCC2)s1` [5-ethylsulfonyl-1,3,4-thiadiazole-2-carboxylic acid-N,N-tetramethylene-amide], the “% activity” value in [1] turned out to be 100%; in the assay on Botrytis cinerea, 75%; in the assay with Tilletia caries (10 g active agent per 100 kg), 100%; with Tilletia caries (20 g active agent per 100 kg), 100%; in the assay with Tilletia caries (50 g active agent per 100 kg) it was 100%; with Plasmopara viticola (setting [5]) it was 91%. Moreover, the “% activity” value in the assay on Plasmopara viticola (setting [6]) is given as 99%; in the assay on Plasmopara viticola (setting [2]), 100%; in the assay with Helminthosporium gram (10 g active agent per 100 kg), 98%; in the assay with Helminthosporium gram (20 g active agent per 100 kg), 100%; in the assay with Helminthosporium gram (50 g active agent per 100 kg) it was 99%. Also, the “root evaluation (1-4)” value in the assay on Pythium ultimum (20 mg/l soil) was 2; with Pythium ultimum (40 mg/l soil), 4; in the assay on Pythium ultimum (80 mg/l soil), 4. The “number of sound peas” value in the assay with Pythium ultimum (20 mg/l soil) stood at 14; in the assay with Pythium ultimum (40 mg/l soil), 20; in the assay on Pythium ultimum (80 mg/l soil), 20.

With `CCCCCS(=O)(=O)c1nnc(C#N)s1` [5-pentylsulfonyl-1,3,4-thiadiazole-2-carbonitrile], the entries for the “number of sound peas” value in the assay with Fusarium avenaceum (25 mg/l soil), with Fusarium avenaceum (50 mg/l soil) and in the assay on Fusarium avenaceum (100 mg/l soil) were 20, 20 and 19, respectively. Further, the “root evaluation (1-4)” value with Fusarium avenaceum (25 mg/l soil), in the assay with Fusarium avenaceum (50 mg/l soil) and in the assay with Fusarium avenaceum (100 mg/l soil) was 4 each time. Besides, the “% activity” value in the assay with Botrytis cinerea was determined as 86%; in the assay on Tilletia caries (50 g active agent per 100 kg) it was 90%; with Plasmopara viticola (setting [2]) it was 90%.

For the compound `CCCCCCS(=O)(=O)c1nnc(C(N)=O)s1` [5-hexylsulfonyl-1,3,4-thiadiazole-2-carboxamide], the “number of sound peas” value in the assay with Fusarium avenaceum (25 mg/l soil) was found to be 7; with Fusarium avenaceum (50 mg/l soil), 12; with Fusarium avenaceum (100 mg/l soil), 15. Moreover, the “root evaluation (1-4)” value turned out to be 1 with Fusarium avenaceum (25 mg/l soil), 2 in the assay on Fusarium avenaceum (50 mg/l soil) and 3 with Fusarium avenaceum (100 mg/l soil). In addition, the “% activity” value was 87% in the assay on Botrytis cinerea, 98% with Tilletia caries (50 g active agent per 100 kg) and 90% in the assay with Plasmopara viticola (setting [2]).
